Laboratory results from US11236102B2, “Oxabicycloheptane prodrugs” (Lixte Biotechnology, Inc., priority 2015, dated 2022).
Like-named read-outs stand apart in the source and are kept apart here.

Tests used:
[1] = fostriecin iv daily for 5 days, phase I trials; cited from earlier work
[2] = female dogs, day 4, cited from earlier work
[3] = Stability in the presence of microsomes; type: in vitro ADME; settings: mouse, rat, dog, monkey, and human microsomes; relative to verapamil
[4] = rat, in vivo
in vivo [5] = settings: rat, iv, 1.4 mg/kg
Experimental: 113 was dissolved in 4% NaHCO3 in saline for IV administration. The detailed procedure of dosing solution preparation was presented in Appendix I.
15 animals were placed on the study. The animals in IV arm were free access to food and water. For PO dose group, the animals were fasted overnight prior to dosing and the food was resumed 4 hours postdose.
The IV injection was conducted via foot dorsal vein. PO via oral gavage.
Blood collection: The animal is restrained manually. Approximately 200 μL of blood/time point is collected into sodium heparin tube via cardiac puncture for terminal bleeding (anesthetized under carbon dioxide). Blood sample will be put on ice and centrifuged to obtain plasma sample (2000 g, 5 min under 4° C.) within 10 minutes.
Liver collection: The animal will be euthanized with carbon dioxide inhalation. Open abdominal cavity with scissor to expose internal organs. Hold the carcass in an upright position and allow the organs to fall forward. Cut the connective tissues and remove the organs. Then the organs are rinsed with cold saline, dried on filtrate paper, placed into a screw-top tube and weighed, snap frozen by placing into dry-ice immediately.
Brain collection: Make a mid-line incision in the animals scalp and retract the skin. Using small bone cutters and rongeurs, remove the skull overlying the brain. Remove the brain using a spatula and rinse with cold saline, dried on filtrate paper, placed into a screw-top tube and weighed, snap frozen by placing into dry-ice immediately. […] Plasma, brain and liver samples were stored at approximately −80° C. until analysis. The backup samples will be discarded after three weeks after in-life completion unless requested. The unused dosing solutions will be discarded within three weeks after completion of the study.
Pharmacokinetic Analysis Software: The PK parameters were determined by non-compartmental model of non-compartmental analysis tool, Pharsight Phoenix WinNonlin® 6.2 software. […] Concentration data within 80%-120% of LLOQ was considered within normal instrumental variation and presented in the results. Terminal t1/2 calculation: Time points were automatic selected by “best fit” model for terminal half life estimation as the first option. Manual selection was applied when “best fit” could not well define the terminal phase. Results

[6] = rat, in vivo; remark: listed apart in the source
in vivo [7] = type: in vivo; settings: rat, in vivo
Experimental: 100 was administrated via iv route at 0.5, 1.0 and 1.5 mg/kg into SD rats. The blood, liver and brain tissue samples were collected at predetermined times from rats.
Twelve (12) female SD rats per group were dosed by iv with 100. The rats were fasted overnight prior to dosing, with free access to water. Foods were withheld for 2 hours post-dose. Blood, liver and brain tissue samples in two animals each group were collected at each time point, within 10% of the scheduled time for each time point. Two extra animals were used for analytic method development. Blood (>0.3 mL) were collected via aorta abdominalis in anaesthetic animals into tubes containing heparin at 15 min, 1, 2, 6, 10 and 24 hours after iv administration. Liver and brain tissues were collected immediately after animal death. The liver and brain tissues were excised and rinsed with cold saline to avoid blood residual. Upon collection, each sample was placed on ice and the blood samples were subsequently centrifuged (4° C., 11000 rpm, 5 min) to separate plasma. The obtained plasma, liver and brain tissue samples were stored at −70° C. until LC-MS/MS analysis.
AUC0-∞ (AUCINF) is the area under the plasma concentration-time curve with last concentration extrapolated based on the elimination rate constant.

[8] = Pharmacokinetic study of 151 (iv, oral) in SD rats: 151 and 100 in plasma; type: in vivo; settings: male, rat, in vivo, iv, 1 mg/kg, 5 h
Experimental: The absolute bioavailability was evaluated.
To each sample, 160 μL of acetonitrile were added.
The mass spectrometer was operated in the positive mode.
Quantification was achieved by the external standard method.
Calibration Curve for Plasma Samples
LB100 concentrations of the LB151 plasma samples were also measured and pharmacokinetic parameters were calculated.

[9] = Radiation dose enhancement by compound 100; settings: compound 100 treatment
[10] = female rats, day 4, cited from earlier work
[11] = system: PP2A in circulating white blood cells; assay: Inhibition of PP2A in circulating white blood cells after slow iv 100; type: in vivo; settings: rat
U251 human GBM cells = settings: compound 100 ip plus radiation
Experimental: Compound 100 is a serine-threonine phosphatase inhibitor that potentiates the activity of standard chemotherapeutic drugs and radiation. The mechanism of potentiation is impairment of multiple steps in a DNA-damage repair process and inhibition of exit from mitosis. […] Mice bearing subcutaneous (sc) xenografts of U251 human GBM cells were treated with compound 100 intraperitoneally together with radiation, each given daily for 5 days×3 courses.

[12] = system: broad spectrum of human cancer cell lines; assay: Activity of compound 100 against human cancer cell lines; type: cell-based
[13] = male, SD, Liver-plasma concentration ratio of 100
[14] = male, SD, liver concentration of 100
[15] = male, SD, plasma concentration of 100
[16] = male, Sprague-Dawley, Liver-plasma concentration ratio of 100

C[C@@](O)(/C=C/[C@H]1CC=CC(=O)O1)[C@@H](C[C@@H](O)\C=C/C=C\C=C\CO)OP(=O)(O)O [fostriecin]
dose limiting toxicity [1]: Dose limiting toxicity was not achieved
major toxicities [1]: reversible non-cumulative increases in serum creatinine and hepatic enzymes

CN1CCN(C(=O)C2C3CCC(O3)C2C(=O)O)CC1 (stereo not shown) [Compound 100]
Co ([2]; 0.15 mg/kg): 566 ng/mL
Co ([2]; 0.30 mg/kg): 857 ng/mL
Co ([2]; 0.50 mg/kg): 1930 ng/mL
stability in presence of microsomes [3]: stable relative to verapamil
oral bioavailability [4]: 1%
plasma level after oral administration [4]: little is present in plasma after oral administration
plasma concentration of 100 (in vivo [5]; male, SD, 6 hr): 3.25 ng/mL
Kp at 0.25 hr (in vivo [5]; [13]): 4.1
Kp at 1 hr (in vivo [5]; [13]): 4.98
concentration at 0.25 hr (in vivo [5]; [14]): 2090 ng/g
concentration at 1 hr (in vivo [5]; [14]): 1360 ng/g
concentration at 2 hr (in vivo [5]; [14]): 425 ng/g
concentration at 6 hr (in vivo [5]; [14]): 23.8 ng/g
concentration at 0.25 hr (in vivo [5]; [15]): 510 ng/mL
concentration at 1 hr (in vivo [5]; [15]): 273 ng/mL
concentration at 6 hr (in vivo [5]; [15]): 3.25 ng/mL
AUC(0-t) ratio of liver over plasma (in vivo [5]; male, Sprague-Dawley): 399
Liver-plasma concentration ratio of 100 (in vivo [5]; male, Sprague-Dawley, 6 hr): 7.32
Kp at 2 hr (in vivo [5]; [16]): 4.95
Kp at 6 hr (in vivo [5]; [16]): 7.32
AUC(0-last) in liver (in vivo [5]): 2804 ng·h/g
AUC(0-∞) in liver (in vivo [5]): 2834 ng·h/g
AUClast-liver/AUClast-plasma of 100 (in vivo [5]): 399
passage of blood brain barrier (BBB) [6]: does not readily pass the blood brain barrier (BBB)
half-life (in vivo [7]; Sprague-Dawley): ≤ 1 h
mean Cmax in plasma (in vivo [7]; female, Sprague-Dawley, iv, 1.5 mg/kg): 1110 to 3664 ng/mL
detectability in liver and brain tissue samples (in vivo [7]; iv): detectable
AUClast in brain (in vivo [7]; iv, 1.5 mg/kg): 10.8 to 125.5 ng·h/g
AUClast in liver (in vivo [7]; iv, 1.5 mg/kg): 758.6 to 9081.0 ng·h/g
Plasma Concentrations of 100 ([8]; Sprague-Dawley (SD)): 5.10 ng/mL
Plasma Concentrations of 100 ([8]; Sprague-Dawley): 10.2 ng/mL
radiation dose enhancement factor [9]: 1.45
% AUC* Extrapolated ([10]; 0.5 mg/kg): 5.6%
Co ([10]; 0.5 mg/kg): 1497 ng/mL
DN AUClast ([10]; 0.5 mg/kg): 904
% AUC* Extrapolated ([10]; 0.75 mg/kg): 27%
Co ([10]; 0.75 mg/kg): 2347 ng/mL
DN AUClast ([10]; 0.75 mg/kg): 921
% AUC* Extrapolated ([10]; 1.25 mg/kg): 17%
Co ([10]; 1.25 mg/kg): 3849 ng/mL
DN AUClast ([10]; 1.25 mg/kg): 1887
inhibition of PP2A in circulating white blood cells ([11]; slow iv 100 at 0.375 mg/kg): 9%
inhibition of PP2A in circulating white blood cells ([11]; slow iv 100 at 0.75 mg/kg): 15%
inhibition of PP2A in circulating white blood cells ([11]; slow iv 100 at 1.5 mg/kg): 25%
recurrence of the remaining 40% of xenografts vs radiation alone (U251 human GBM cells): two months later
xenografts eliminated (U251 human GBM cells; daily for 5 days x 3 courses, 6 months plus follow-up): 60%
IC50 [12]: 1000 to 3000 nM
